Measured values as given in patent publication US10730875B2, “Substituted imidazo[1,2-A]pyridin-2-ylamine compounds, and pharmaceutical compositions and methods of use thereof” (JN Therapeutics, priority 2015, dated 2020).

Key:
Type in all cases: biochemical
[1] = target: human Janus kinase 2 (JAK2), recombinant catalytic domain (Homo sapiens (Human), UniProt O60674); experiment: LanthaScreen TR-FRET enzymatic assay, JAK2; conditions: for IC50: TR-FRET, 1 mM ATP, GFP-STAT1 substrate, read-out: Inhibitory Activity IC50 JAK2; for Selectivity JAK2/JAK1: ratio of IC50 against JAK2 over IC50 against JAK1
Experimental: (§1) The in vitro inhibition of recombinant human JAKs was determined as follow.
(§2) Compounds were tested in LANTHASCREEN™ time-resolved fluorescence energy transfer (TR-FRET) enzymatic assays from Invitrogen. The human Janus kinase 1 (JAK1) used in the assay is the recombinant JAK1 catalytic domain (amino acids 866-1154) expressed and purified from insect cells (Invitrogen, Cat. No. PV4774). The human Janus kinase 2 (JAK2) used in the assay is the recombinant JAK2 catalytic domain (amino acids 808-1132) expressed and purified from insect cells (Invitrogen, Cat. No. PV4210). The human Janus kinase 3 (JAK3) used in the assay is the recombinant JAK3 catalytic domain (amino acids 781-1124) expressed and purified from insect cells (Invitrogen, Cat. No. PV3855). The human tyrosine kinase 2 (TYK2) used in the assay is the recombinant TYK2 catalytic domain (amino acids 833-1187) expressed and purified from insect cells (Invitrogen, Cat. No. PV4790). The substrate is a recombinant STAT1 expressed as a fusion with GFP (Green Fluorescent Protein) to act as a physiological substrate (Invitrogen, Cat. No. PV5211).
(§3) Test compounds were prepared and diluted in DMSO in 3-fold serial dilutions for 10 doses to 100× of the final testing concentrations. The compounds were then further diluted to 4× by the kinase reaction buffer (Invitrogen, Cat. No. PV3189). The enzymatic reaction for compound testing was performed in a white 384-well polypropylene plate (Packard, Cat. No. 6005214) with a total reaction volume of 10 μL containing 440 ng/mL JAK1, 11 ng/mL JAK2, 400 ng/mL JAK3, or 200 ng/mL TYK2, 100 nM substrate, and 1 mM ATP. The assay started with loading 2.5 μL of JAK1, JAK2, JAK3, or TYK2 diluted in the kinase reaction buffer to wells, followed by addition of an equal volume of 4× compounds for 15-min incubation at room temperature for pre-treatment. The enzymatic reaction was initiated by addition of 5 μL of a mixture of the substrate and ATP prepared in the kinase reaction buffer. After one hour reaction, 10 μL mixture of EDTA (final 10 mM) and terbium-labeled anti-pSTAT1 (pTyr701) antibody (final 2 nM) (Invitrogen, Cat. No. PV4844) prepared in TR-FRET antibody dilution buffer (Invitrogen, Cat. No. PV3574) was added to stop the enzymatic reaction and produce TR-FRET signals. After 30 minutes of incubation at room temperature, the plate was read in Tecan Infinite F200 Pro with the following settings: Excitation 340 nm (30)/Emission1 495 nm (10)/Emission2 520 nm (25). The TR-FRET values were dimensionless numbers that were calculated as the ratio of the acceptor ([…]) signal to the donor (Terbium) signal. Percent of inhibition was calculated as (100%−percentage of compound-treated/DMSO vehicle-treated). The dose-response curves were generated and the IC50s were calculated by nonlinear sigmoid curve fitting using GraphPad Prism.
(§4) In Table 1, A represents a value no greater than 500 nM, B represents a value greater than 500 nM but no greater than 1 μM, C represents a value greater than 1 μM but no greater than 5 μM, and D represents a value greater than 5 μM. In Table 2, A′ represents a ratio of greater than 8, B′ represents a ratio of no greater than 8 but no less than 4, C′ represents a ratio of no greater than 4 but no less than 2, and D′ represents a ratio of no greater than 2. The selectivity is expressed as a ratio of the IC50 values of a compound against two kinases to be compared.

[2] = target: human tyrosine kinase 2 (TYK2), recombinant catalytic domain (Homo sapiens (Human), UniProt P29597); experiment: LanthaScreen TR-FRET enzymatic assay, TYK2; conditions: TR-FRET, 1 mM ATP, GFP-STAT1 substrate; read-out: Inhibitory Activity IC50 TYK2
Experimental: as §1, §2, §3, §4

[3] = tested on: human tyrosine kinase 2 (TYK2), recombinant catalytic domain; experiment: LanthaScreen TR-FRET enzymatic assay, TYK2; conditions: ratio of IC50 against TYK2 over IC50 against JAK1
Experimental: as §1, §2, §3, §4

[4] = target: human Janus kinase 1 (JAK1), recombinant catalytic domain (Homo sapiens (Human), UniProt P23458); experiment: LanthaScreen TR-FRET enzymatic assay, JAK1; conditions: 1 mM ATP, GFP-STAT1 substrate, read-out: Inhibitory Activity IC50 JAK1
Experimental: as §1, §2, §3, §4

[5] = tested on: human Janus kinase 3 (JAK3), recombinant catalytic domain; experiment: LanthaScreen TR-FRET enzymatic assay, JAK3; conditions: ratio of IC50 against JAK3 over IC50 against JAK1
Experimental: as §1, §2, §3, §4

[6] = target: human Janus kinase 3 (JAK3), recombinant catalytic domain (Homo sapiens (Human), UniProt P52333); experiment: LanthaScreen TR-FRET enzymatic assay, JAK3; conditions: TR-FRET, 1 mM ATP, GFP-STAT1 substrate; read-out: Inhibitory Activity IC50 JAK3
Experimental: as §1, §2, §3, §4

human Janus kinase 2 (JAK2), recombinant catalytic domain, sequence (O60674 808-1132): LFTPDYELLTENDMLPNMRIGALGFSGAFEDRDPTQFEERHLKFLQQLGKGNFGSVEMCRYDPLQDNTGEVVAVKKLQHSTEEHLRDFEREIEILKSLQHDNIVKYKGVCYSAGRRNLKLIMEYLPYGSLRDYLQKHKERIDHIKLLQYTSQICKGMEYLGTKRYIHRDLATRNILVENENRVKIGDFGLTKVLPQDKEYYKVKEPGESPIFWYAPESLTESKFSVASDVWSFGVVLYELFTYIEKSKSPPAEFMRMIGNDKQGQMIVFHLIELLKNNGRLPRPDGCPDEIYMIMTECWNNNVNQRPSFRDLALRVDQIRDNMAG
human tyrosine kinase 2 (TYK2), recombinant catalytic domain (Homo sapiens (Human), UniProt P29597), sequence (P29597 833-1187): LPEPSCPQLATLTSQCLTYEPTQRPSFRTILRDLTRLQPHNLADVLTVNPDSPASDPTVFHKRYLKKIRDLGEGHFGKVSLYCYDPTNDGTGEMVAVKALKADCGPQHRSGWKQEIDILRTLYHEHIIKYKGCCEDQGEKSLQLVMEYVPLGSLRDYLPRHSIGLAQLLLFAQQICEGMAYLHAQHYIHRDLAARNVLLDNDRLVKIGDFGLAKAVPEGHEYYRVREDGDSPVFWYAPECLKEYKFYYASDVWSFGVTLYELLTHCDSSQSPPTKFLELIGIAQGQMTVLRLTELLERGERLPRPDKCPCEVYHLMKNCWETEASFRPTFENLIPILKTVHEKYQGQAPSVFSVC
human Janus kinase 3 (JAK3), recombinant catalytic domain (Homo sapiens (Human), UniProt P52333), sequence (P52333 781-1124): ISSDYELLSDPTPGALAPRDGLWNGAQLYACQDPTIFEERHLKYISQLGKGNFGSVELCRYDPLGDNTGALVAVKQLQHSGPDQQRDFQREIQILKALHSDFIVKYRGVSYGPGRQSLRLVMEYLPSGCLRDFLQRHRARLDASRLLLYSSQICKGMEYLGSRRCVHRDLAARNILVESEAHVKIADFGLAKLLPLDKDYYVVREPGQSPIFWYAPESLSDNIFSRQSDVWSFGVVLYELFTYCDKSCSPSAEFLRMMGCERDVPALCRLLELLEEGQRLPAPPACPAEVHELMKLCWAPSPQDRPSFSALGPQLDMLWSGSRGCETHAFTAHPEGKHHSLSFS
human Janus kinase 1 (JAK1), recombinant catalytic domain, sequence (P23458 866-1154): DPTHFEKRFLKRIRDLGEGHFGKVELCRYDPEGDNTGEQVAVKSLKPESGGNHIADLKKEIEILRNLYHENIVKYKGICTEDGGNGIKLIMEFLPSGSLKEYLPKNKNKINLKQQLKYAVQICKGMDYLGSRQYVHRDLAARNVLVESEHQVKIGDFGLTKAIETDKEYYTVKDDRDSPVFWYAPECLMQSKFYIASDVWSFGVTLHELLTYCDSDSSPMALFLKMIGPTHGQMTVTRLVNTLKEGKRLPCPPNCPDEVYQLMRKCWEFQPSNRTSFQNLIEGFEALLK

| Structure (SMILES) | IC50 [1] [µM] | Selectivity JAK2/JAK1 [1] | IC50 [2] [µM] | Selectivity TYK2/JAK1 [3] | IC50 [4] [µM] | Selectivity JAK3/JAK1 [5] | IC50 [6] [µM] |
| --- | --- | --- | --- | --- | --- | --- | --- |
| N#CC1CCN(Cc2ccc(-c3cccc4nc(NC(=O)C5CC5)cn34)cc2)CC1 [Compound 7] | > 5 | A′ (A′ represents a ratio of greater than 8) | > 5 | A′ (A′ represents a ratio of greater than 8) | 0.5 to 1 | A′ (A′ represents a ratio of greater than 8) | > 5 |
| O=C(Nc1cn2c(-c3ccc(C(=O)N4CCS(=O)(=O)CC4)cc3)cccc2n1)C1CC1 [Compound 13, N-(5-(4-(1,1-Dioxo-1-thiomorpholine-4-carbonyl)phenyl)imidazo[1,2-a]pyridin-2-yl)cyclopropane Carboxamide] | > 5 | A′ (A′ represents a ratio of greater than 8) | > 5 | A′ (A′ represents a ratio of greater than 8) | 0.5 to 1 | A′ (A′ represents a ratio of greater than 8) | > 5 |
| O=C(Nc1cn2c(-c3ccc(CN4CCS(=O)(=O)CC4)cc3)cccc2n1)C1CCC1 [Compound 3] | > 5 | A′ (A′ represents a ratio of greater than 8) | > 5 | A′ (A′ represents a ratio of greater than 8) | 1 to 5 | A′ (A′ represents a ratio of greater than 8) | > 5 |
| CN1CCN(Cc2ccc(-c3cccc4nc(NC(=O)C5CC5)cn34)cc2)CC1 [Compound 5] | > 5 | A′ (A′ represents a ratio of greater than 8) | > 5 | A′ (A′ represents a ratio of greater than 8) | > 5 | A′ (A′ represents a ratio of greater than 8) | > 5 |
| O=C(Nc1cn2c(-c3ccc(CN4CC[C@H](O)C4)cc3)cccc2n1)C1CC1 [Compound 8] | > 5 | A′ (A′ represents a ratio of greater than 8) | > 5 | A′ (A′ represents a ratio of greater than 8) | 0.5 to 1 | A′ (A′ represents a ratio of greater than 8) | > 5 |
| CC(C#N)c1ccc(-c2cccc3nc(NC(=O)C4CC4)cn23)cc1 (stereo not drawn) [Compound 27] | > 5 | A′ (A′ represents a ratio of greater than 8) | > 5 | A′ (A′ represents a ratio of greater than 8) | 0.5 to 1 | A′ (A′ represents a ratio of greater than 8) | > 5 |
| O=C(Nc1cn2c(-c3ccc(CN4CCCCC4)cc3)cccc2n1)C1CC1 [Compound 6] | > 5 | A′ (A′ represents a ratio of greater than 8) | > 5 | A′ (A′ represents a ratio of greater than 8) | 1 to 5 | A′ (A′ represents a ratio of greater than 8) | > 5 |
| Nc1cn2c(-c3ccc(CN4CCS(=O)(=O)CC4)cc3)cccc2n1 [Compound 19] | > 5 | A′ (A′ represents a ratio of greater than 8) | > 5 | C′ (C′ represents a ratio of no greater than 4 but no less than 2) | > 5 | D′ (D′ represents a ratio of no greater than 2) | > 5 |
| Cc1cc(CN2CCS(=O)(=O)CC2)ccc1-c1cccc2nc(NC(=O)C3CC3)cn12 [Compound 12] | > 5 | A′ (A′ represents a ratio of greater than 8) | > 5 | A′ (A′ represents a ratio of greater than 8) | 1 to 5 | A′ (A′ represents a ratio of greater than 8) | > 5 |
| N#CCc1ccc(-c2cccc3nc(NC(=O)C4CC4)cn23)cc1 [Compound 11] | > 5 | A′ (A′ represents a ratio of greater than 8) | > 5 | A′ (A′ represents a ratio of greater than 8) | ≤ 0.5 | A′ (A′ represents a ratio of greater than 8) | > 5 |
| O=C(Nc1cn2c(-c3cccc(CN4CCS(=O)(=O)CC4)c3)cccc2n1)C1CC1 [Compound 29] | > 5 | C′ (C′ represents a ratio of no greater than 4 but no less than 2) | > 5 | C′ (C′ represents a ratio of no greater than 4 but no less than 2) | > 5 | A′ (A′ represents a ratio of greater than 8) | > 5 |
| N#CCc1ccccc1NCc1ccc(-c2cccc3nc(NC(=O)C4CC4)cn23)cc1 [Compound 32] | > 5 | A′ (A′ represents a ratio of greater than 8) | > 5 | A′ (A′ represents a ratio of greater than 8) | ≤ 0.5 | A′ (A′ represents a ratio of greater than 8) | > 5 |
